Reference: PubChem BioAssay (NCI)
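1) Cells in 96-well plates. 2) Compound, 48 h, 5 concentrations. 3) Linear interpolation between surrounding doses. 4) Unreached endpoint = highest concentration. GI50 is the concentration that inhibits growth by half. TGI is the concentration that stops growth completely.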

Experiments:
Test in all cases: DTP human tumour cell line panel, 48 h
SR leukemia = system: SR leukemia
RXF 393 renal = system: RXF 393 renal
MALME-3M melanoma = system: MALME-3M melanoma
SK-MEL-5 melanoma = system: SK-MEL-5 melanoma
786-0 renal = system: 786-0 renal
NCI-H522 lung = system: NCI-H522 lung
HL-60(TB) leukemia = system: HL-60(TB) leukemia
OVCAR-3 ovarian = system: OVCAR-3 ovarian
RPMI-8226 leukemia = system: RPMI-8226 leukemia
UACC-257 melanoma = system: UACC-257 melanoma

SMILES | GI50 (SR leukemia) | TGI (SR leukemia) | GI50 (RXF 393 renal) | TGI (RXF 393 renal) | GI50 (MALME-3M melanoma) | TGI (MALME-3M melanoma) | GI50 (SK-MEL-5 melanoma) | TGI (SK-MEL-5 melanoma) | GI50 (786-0 renal) | TGI (786-0 renal) | GI50 (NCI-H522 lung) | TGI (NCI-H522 lung) | GI50 (HL-60(TB) leukemia) | TGI (HL-60(TB) leukemia) | GI50 (OVCAR-3 ovarian) | TGI (OVCAR-3 ovarian) | GI50 (RPMI-8226 leukemia) | TGI (RPMI-8226 leukemia) | GI50 (UACC-257 melanoma) | TGI (UACC-257 melanoma)
Nc1ccccc1-c1ccc([N+](=O)[O-])cc1 | 29 µM | > 100 µM | 55.9 µM | > 100 µM | 16.5 µM | > 100 µM | 2.58 µM | > 100 µM | 9.16 µM | > 100 µM | 11.2 µM | > 100 µM | 2.93 µM | 26.1 µM | 13.4 µM | 76.9 µM | 4.95 µM | > 100 µM | 21.1 µM | > 100 µM
Cc1ccc2c(c1)c1nc3cc(C)c(C)cc3nc1n2CCN(C)C | 1.06 µM | 14.2 µM | 1.32 µM | 3.4 µM | 1.73 µM | 3.76 µM | 1.77 µM | 3.18 µM | 2.56 µM | 10.8 µM | 1.54 µM | 5.58 µM | 2.95 µM | 9.65 µM | 2.37 µM | 6.59 µM | 2.06 µM | 5.2 µM | 2.2 µM | 5.48 µM
Nc1cc(C(=O)O)[nH]c(=O)n1 | – | > 100 µM | – | > 100 µM | – | > 100 µM | – | > 100 µM | – | > 100 µM | – | > 100 µM | – | > 100 µM | – | > 100 µM | – | > 100 µM | – | > 100 µM
Cc1ccccc1C1=[N+]([O-])c2ccccc2C1=O | – | > 100 µM | – | 37.3 µM | – | 33.2 µM | – | 30.9 µM | – | 31.3 µM | – | 29 µM | – | 28.9 µM | – | 25.2 µM | – | > 100 µM | – | 27.9 µM
Cc1ccc(NC(=O)Cc2ccc(/C=C/C(=O)c3ncc[nH]3)cc2)cc1 | 0.992 µM | > 25 µM | 7.68 µM | > 25 µM | > 25 µM | > 25 µM | 18.3 µM | > 25 µM | 4.28 µM | > 25 µM | 4.54 µM | 20.5 µM | 5.88 µM | > 25 µM | 1.67 µM | > 25 µM | 1.79 µM | 11.8 µM | > 25 µM | > 25 µM
N=C(N)c1ccc(OCCOCCOc2ccc(C(=N)N)cc2)cc1 | 31.7 µM | > 100 µM | > 100 µM | > 100 µM | 39.5 µM | > 100 µM | 33.1 µM | > 100 µM | > 100 µM | > 100 µM | 45.5 µM | > 100 µM | > 100 µM | > 100 µM | > 100 µM | > 100 µM | 68.5 µM | > 100 µM | 38.3 µM | > 100 µM
COc1ccc(NC(=O)CC(=O)N2N=C(N(CCC#N)c3ccccc3Cl)CC2c2ccccc2)cc1 (centres undefined) | – | > 100 µM | – | > 100 µM | – | > 100 µM | – | > 100 µM | – | > 100 µM | – | > 100 µM | – | > 100 µM | – | > 100 µM | – | > 100 µM | – | > 100 µM
Clc1ccc(/C=C/c2cc(N3CCOCC3)c3cc(Cl)c(Cl)cc3n2)cc1 | 14.9 µM | > 61.8 µM | > 100 µM | > 100 µM | > 100 µM | > 100 µM | > 100 µM | > 100 µM | 1.37 µM | > 100 µM | 1.86 µM | > 100 µM | 0.339 µM | > 100 µM | 3.81 µM | > 100 µM | 0.311 µM | 1.09 µM | > 100 µM | > 100 µM
O=C(Nc1ccccc1)c1nn(-c2cc(S(=O)(=O)O)c([N+](=O)[O-])cc2Cl)[n+](-c2cc(S(=O)(=O)[O-])c([N+](=O)[O-])cc2Cl)n1 | – | > 100 µM | – | > 100 µM | – | > 100 µM | – | > 100 µM | – | > 100 µM | – | > 100 µM | – | > 100 µM | – | > 100 µM | – | > 100 µM | – | > 100 µM
N#Cc1ncc(-c2ccc(C(F)(F)F)cc2)c(NCc2cc(C(F)(F)F)cc(C(F)(F)F)c2)n1 | 2.97 µM | 13.8 µM | 3.37 µM | 20.1 µM | 2.98 µM | 8.89 µM | 3.91 µM | 15 µM | 6.39 µM | 96.3 µM | 2.92 µM | 9.86 µM | 2.36 µM | 5.76 µM | 3.8 µM | 22.7 µM | 2.29 µM | 5.87 µM | 3.06 µM | 9.92 µM
CN(Cc1ccc(Cl)cc1)c1ccc(CO)c(Cl)c1 | 13.1 µM | 54.8 µM | 3.57 µM | 16.8 µM | 13.4 µM | 29.2 µM | 5.42 µM | 17.3 µM | 3.82 µM | 17 µM | 13.4 µM | 31.2 µM | 5.28 µM | 42.4 µM | 3.74 µM | 13.2 µM | 5.51 µM | > 52.3 µM | 0.515 µM | 2.45 µM
CCCc1cc(O)c2c3c(c(=O)oc2c1)CN(C)CC3 | 36.1 µM | > 100 µM | 23.1 µM | > 100 µM | 35.1 µM | > 100 µM | 19 µM | 44.7 µM | 61.7 µM | > 100 µM | 45.1 µM | > 100 µM | 50.2 µM | > 100 µM | > 100 µM | > 100 µM | 24.2 µM | 91.2 µM | 26.1 µM | > 100 µM
CCC[CH2][Sn]([CH2]CCC)([O]C(=O)c1cc(F)ccc1F)[O][Sn]([CH2]CCC)([CH2]CCC)[O]C(=O)c1cc(F)ccc1F | 0.14 µM | > 22.3 µM | 0.0472 µM | 0.191 µM | 0.125 µM | 0.339 µM | 0.626 µM | 1.83 µM | 0.158 µM | 0.405 µM | – | 0.0658 µM | 0.139 µM | 2.6 µM | 0.512 µM | 1.61 µM | 0.0916 µM | > 100 µM | 0.255 µM | 1.21 µM
O=[N+]([O-])c1ccccc1N=Nc1c(O)[nH]c2ccc(Br)cc12 | – | > 40.5 µM | – | > 47.5 µM | – | > 100 µM | – | > 37.7 µM | – | 40.4 µM | – | > 34.8 µM | – | > 68.8 µM | – | 35.4 µM | – | > 68.6 µM | – | > 50.3 µM
